Source: patent US20060084704A1, “Methods and compositions for enhancing degradation of nuclear receptor transcription factors and uses thereof” (priority 2004, published 2006)

Target: T1, LNCaP androgen receptor (endogenous mutant AR) (Homo sapiens, UniProt P10275, T878A)
T1 construct: LNCaP cells express an endogenous mutant AR that is found in prostate cancer patients; host or cells: LNCaP
T1 sequence (P10275 1-920 T878A): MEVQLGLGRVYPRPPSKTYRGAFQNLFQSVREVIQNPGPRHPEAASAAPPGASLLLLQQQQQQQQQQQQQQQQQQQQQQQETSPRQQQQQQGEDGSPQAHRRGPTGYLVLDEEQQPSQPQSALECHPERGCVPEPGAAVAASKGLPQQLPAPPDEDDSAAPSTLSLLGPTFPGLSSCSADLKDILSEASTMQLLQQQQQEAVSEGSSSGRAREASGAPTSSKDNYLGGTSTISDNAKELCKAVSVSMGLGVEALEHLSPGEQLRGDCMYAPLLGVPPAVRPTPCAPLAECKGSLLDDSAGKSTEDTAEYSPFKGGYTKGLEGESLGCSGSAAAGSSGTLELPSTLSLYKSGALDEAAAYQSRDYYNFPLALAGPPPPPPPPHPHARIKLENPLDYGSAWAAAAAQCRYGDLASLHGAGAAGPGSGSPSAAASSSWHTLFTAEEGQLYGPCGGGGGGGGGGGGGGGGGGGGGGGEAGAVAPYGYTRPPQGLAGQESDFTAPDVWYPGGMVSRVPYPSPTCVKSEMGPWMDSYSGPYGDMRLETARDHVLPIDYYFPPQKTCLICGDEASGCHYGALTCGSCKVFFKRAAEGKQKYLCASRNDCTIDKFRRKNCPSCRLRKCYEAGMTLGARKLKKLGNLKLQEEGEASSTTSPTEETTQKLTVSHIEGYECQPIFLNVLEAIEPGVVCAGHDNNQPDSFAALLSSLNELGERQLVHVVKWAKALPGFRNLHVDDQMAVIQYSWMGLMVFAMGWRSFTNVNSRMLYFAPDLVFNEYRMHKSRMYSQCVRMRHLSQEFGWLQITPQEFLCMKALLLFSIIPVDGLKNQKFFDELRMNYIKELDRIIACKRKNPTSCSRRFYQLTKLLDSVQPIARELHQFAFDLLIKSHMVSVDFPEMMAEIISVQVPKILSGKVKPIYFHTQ
Test: Androgen receptor transactivation assay in LNCaP cells (MMTV-luciferase reporter)
Format: cell-based
Conditions: DHT 1 nM, JC9 0 uM to 7.5 uM
Source text: Prostate cancer cells, non-prostate tumor cells, and normal cells can be used in this transient transfection assay, which measures transactivation of the androgen receptor (AR) and can be used to detect a reduction of AR activity caused by AR degradation. In the provided non-limiting example, CV-1 (green monkey kidney cells lacking an androgen receptor) and LNCaP cells (prostate cancer cells containing an endogenous mutant AR), were transfected with a plasmid carrying an androgen response element (ARE) and a reporter gene.
Both the CV-1 and LNCaP cells (obtained from ATCC, Manassas, Va.) were maintained in […] medium supplemented with penicillin (25 units/millilter), streptomycin (25 micrograms/milliliter), and 10% heat-inactivated fetal bovine serum (FBS). Cells were plated in 35-millimeter dishes at a concentration of 1-2×10^5cells/well and cultured at 37 degrees Celsius in an incubator under a 5% carbon dioxide atmosphere. […] The cells were lysed, and luciferase activity of the lysate was measured with the Dual-Luciferase Reporter Assay System (Promega, Madison, Wis.). Data were expressed as relative luciferase activity normalized to the internal luciferase positive control. […]

## COc1ccc(C=CC(=O)C=C(O)C=Cc2ccc(OC)c(OC)c2)cc1OC [JC9, 5-hydroxy-1,7-bis(3,4-dimethoxyphenyl)-1,4,6-heptatrien-3-one]
  LNCaP androgen receptor transactivation (relative luciferase activity): dose-dependent inhibition of LNCaP androgen receptor transactivation
